Data reported in patent publication US8129424B2, “Indole derivatives as histamine 3 receptor inhibitors for the treatment of cognitive and sleep disorders, obesity and other CNS disorders” (Athersys, Inc., priority 2005, dated 2012).

Target: T1, human histamine H3 receptor (Homo sapiens, UniProt Q9Y5N1)
T1 construct: expressed in transfected cells; host or cells: HT1080-Gqαi5 cells (human), pFG8-HH3 RAGE vector integrated; methotrexate-amplified clone RAGE-H3
Assay: Radioligand competition binding assay with [125I]iodoproxyfan on RAGE-H3 cell membranes
Details: [125I]iodoproxyfan competition binding, apparent Ki by Cheng-Prussof equation
Method: Representative compounds of the present invention that were prepared by the procedures of Examples 1-41 were evaluated in binding assays against cells expressing human H3 receptor by the following procedure.
The human histamine H3 receptor was stably expressed in HT1080 cells containing the chimeric G-protein, Gq[…]i5 (Coward et al., Anal Biochem 1999; 270:242-8). HT1080-Gqαi5 cells were grown in alpha-modified MEM containing 10% fetal bovine serum and 7 μg/ml blasticidin at 37° C. in 5% CO2/95% atmosphere. Cells (4.8×10^9) were irradiated with 50 rads from a ^137Cs source and the pFG8-HH3 RAGE (Random Activation of Gene Expression; see Harrington et al., Nature Biotechnology. 2001; 19:440-45) vector was subsequently integrated into the cells via electroporation (250V, 600 μF, 50Ω). The RAGE vector pFG8-HH3 contained cDNA sequence coding for the first exon (83 amino acids) of human H3 receptor. After electroporation, cells were plated in T75 flasks and grown in alpha-modified MEM. The culture medium was replaced 48 hours after electroporation with alpha-modified MEM, 10% fetal bovine serum, 500 μg/ml hygromycin B and 3 μg/ml puromycin. Medium was replaced every four days during cell expansion. To identify RAGE activated cells expressing the H3 receptor, pools of approximately 10,000 colonies (5×10^7-1.5×10^8 cells total) were screened by PCR for the desired gene product (using primers specific to the RAGE vector and exon 2 of the H3 receptor). […] Positive 100 cells/well pools were identified by PCR, confirmed by sequencing, and subsequently subcloned to 0.8 cells/well. Once clones expressing the H3 receptor were identified by PCR analysis, assays (FLIPR or radioligand binding) were performed to confirm that the activated gene produced functional protein. The protein expression in the initial clones obtained from the RAGE library was increased by growth in the presence of methotrexate. Since the integrated RAGE vector contains the DHFR gene, such treatment selects for cells that have amplified the genetic locus containing the RAGE insert. Subclones obtained after methotrexate amplification were tested for functional activity in FLIPR assays to identify the clone that was most suitable for HTS. The final HT1080-Gqαi5 RAGE clone (RAGE-H3) expressing the human histamine H3 receptor was grown in alpha-modified MEM containing 10% fetal bovine serum, 3 μg/ml puromycin, 500 μg/ml hygromycin B, 3.2 μM methotrexate at 37° C. in 5% CO2/95% atmosphere.
RAGE-H3 cells (10^9) were washed twice with cold PBS, scraped off the plates, and centrifuged at 1000×g for 5 minutes. Cells were resuspended in ice-cold 10 mM Tris HCl, pH 7.4, containing 5 mM EDTA and protease inhibitor cocktail tablets (Roche Molecular Biochemicals). After incubating on ice for 10 minutes, the cells were homogenized with a dounce homogenizer or a polytron tissue grinder, and centrifuged at 1000×g for 10 minutes at 4° C. The resulting supernatant was centrifuged at 32,000×g for 30 minutes at 4° C. The membrane pellets were resuspended in 50 mM Tris HCl, pH 7.4, and stored at −80° C. until use. Protein concentration was determined by the Bradford method (Bio-Rad Laboratories, CA).
Binding assays were carried out in 96-well polypropylene plates in 50 mM Tris HCl, pH 7.4, containing 1 mM EDTA. Reaction mixtures contained 100 μl of membrane suspension, 50 of 4% DMSO, and 50 μl of increasing amounts of [^125I]iodoproxyfan (final concentration 0.0005-1.8 nM for human H3 receptor saturation binding assay). Nonspecific binding was defined by adding 10 μM clobenpropit to the reaction mixtures. Competition binding assays were performed in a reaction mixture containing 100 μl of membrane suspension (˜20 μg of protein/well), 50 μl of [^125I]iodoproxyfan (final concentration of ˜0.15 nM) and 50 μl of test compound. Compounds were dissolved in DMSO and then diluted with 4% DMSO; the final maximal DMSO concentration in the binding assays was 1%. […]

T1 sequence (Q9Y5N1 whole entry): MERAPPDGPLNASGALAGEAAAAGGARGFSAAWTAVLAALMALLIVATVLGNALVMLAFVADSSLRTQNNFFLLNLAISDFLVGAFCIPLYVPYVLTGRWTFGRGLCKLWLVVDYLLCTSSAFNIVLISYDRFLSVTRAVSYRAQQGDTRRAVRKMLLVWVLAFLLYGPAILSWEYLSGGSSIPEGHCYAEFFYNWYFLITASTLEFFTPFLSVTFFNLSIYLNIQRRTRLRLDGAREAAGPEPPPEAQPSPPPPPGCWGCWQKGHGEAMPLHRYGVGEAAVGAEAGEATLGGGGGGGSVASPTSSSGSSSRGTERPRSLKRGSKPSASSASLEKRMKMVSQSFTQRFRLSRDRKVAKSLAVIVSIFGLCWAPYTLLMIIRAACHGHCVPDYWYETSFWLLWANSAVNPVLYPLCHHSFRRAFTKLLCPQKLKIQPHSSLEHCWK

| SMILES | Ki |
| --- | --- |
| c1ccc2c(c1)cc(C1CC1)n2C1CCC(OCCCN2CCCC2)CC1 (single isomer, unassigned) [Example 39, 2-Cyclopropyl-1-[4-(3-pyrrolidin-1-ylpropoxy)cyclohexyl]-1H-indole] | < 10 nM |
| Cc1cc2ccccc2n1-c1ccc(OCCCN2CCCCC2)cc1 [Example 2, 2-Methyl-1-[4-(3-piperidin-1-ylpropoxy)phenyl]-1H-indole] | < 10 nM |
| Cc1ccc2c(c1)cc(C)n2-c1ccc(OCCCN2CCCC2)cc1 [Example 11, 2,5-Dimethyl-1-[4-(3-pyrrolidin-1-ylpropoxy)phenyl]-1H-indole] | < 100 nM |
| Clc1ccc2ccn(-c3ccc(OCCCN4CCCC4)cc3)c2c1 [Example 12, 6-Chloro-1-[4-(3-pyrrolidin-1-ylpropoxy)phenyl]-1H-indole] | < 100 nM |
| Cc1cc2cc(F)ccc2n1-c1ccc(OCCCN2CCCC2)cc1 [Example 13, 2-Methyl-5-fluoro-1-[4-(3-pyrrolidin-1-ylpropoxy)phenyl]-1H-indole] | < 10 nM |
| COCc1cc2ccccc2n1-c1ccc(OCCCN2CCCC2)cc1 [Example 32, 2-Methoxymethyl-1-[4-(3-pyrrolidin-1-ylpropoxy)phenyl]-1H-indole] | < 10 nM |
| c1ccc2c(c1)cc(COC1CCCCC1)n2-c1ccc(OCCCN2CCCC2)cc1 [Example 33, 2-Cyclohexyloxymethyl-1-[4-(3-pyrrolidin-1-ylpropoxy)phenyl]-1H-indole] | < 10 nM |
| CC(C)OCc1cc2ccccc2n1-c1ccc(OCCCN2CCCC2)cc1 [Example 34, 2-Isopropoxymethyl-1-[4-(3-pyrrolidin-1-ylpropoxy)phenyl]-1H-indole] | < 10 nM |
| c1ccc2c(c1)cc(COC1CCCC1)n2-c1ccc(OCCCN2CCCC2)cc1 [Example 35, 2-Cyclopentyloxymethyl-1-[4-(3-pyrrolidin-1-ylpropoxy)phenyl]-1H-indole] | < 10 nM |
| COc1ccc2c(c1)cc(CO)n2-c1ccc(OCCCN2CCCC2)cc1 [Example 36, {5-Methoxy-1-[4-(3-pyrrolidin-1-ylpropoxy)phenyl]-1H-indol-2-yl}methanol] | < 10 nM |
| COCc1cc2cc(OC)ccc2n1-c1ccc(OCCCN2CCCC2)cc1 [Example 42, 5-Methoxy-2-methoxymethyl-1-[4-(3-pyrrolidin-1-ylpropoxy)phenyl]-1H-indole] | < 10 nM |
| COCc1cc2cc(C)ccc2n1-c1ccc(OCCCN2CCCC2)cc1 [Example 43, 5-Methyl-2-methoxymethyl-1-[4-(3-pyrrolidin-1-ylpropoxy)phenyl]-1H-indole] | < 10 nM |
| COCc1cc2cc(F)ccc2n1-c1ccc(OCCCN2CCCC2)cc1 [Example 44, 5-Fluoro-2-methoxymethyl-1-[4-(3-pyrrolidin-1-ylpropoxy)phenyl]-1H-indole] | < 10 nM |

The remaining lines, values ahead:

| Ki | SMILES |
| --- | --- |
| < 10 nM | Cc1cc2ccccc2n1-c1ccc(OCCCN2CCCC2)cc1 [Example 1, 2-Methyl-1-[4-(3-pyrrolidin-1-ylpropoxy)phenyl]-1H-indole] |
| < 10 nM | Cc1cc2ccccc2n1-c1ccc(OCCCN2CCC[C@H]2C)cc1 [Example 3, 2-Methyl-1-{4-[3-(2R-methylpyrrolidin-1-yl)propoxy]phenyl}-1H-indole] |
| < 10 nM | COc1ccc2c(c1)cc(C(=O)N1CCCC1)n2-c1ccc(OCCCN2CCC[C@H]2C)cc1 [Example 18, (5-Methoxy-1-{4-[3-(2R-methylpyrrolidin-1-yl)propoxy]phenyl}-1H-indol-2-yl)pyrrolidin-1-ylmethanone] |
| < 10 nM | C[C@@H]1CCCN1CCCOc1ccc(-n2c(C(=O)NC3CCC3)cc3ccccc32)cc1 [Example 19, 1-{4-[3-(2R-Methylpyrrolidin-1-yl)propoxy]phenyl}-1H-indole-2-carboxylic acid cyclobutylamide] |
| < 10 nM | C[C@@H]1CCCN1CCCOc1ccc(-n2c(C(=O)NC3CCCC3)cc3ccccc32)cc1 [Example 20, 1-{4-[3-(2R-Methylpyrrolidin-1-yl)propoxy]phenyl}-1H-indole-2-carboxylic acid cyclopentylamide] |
| < 100 nM | C[C@@H]1CCCN1CCCOc1ccc(-n2c(C(=O)NC3CCCCC3)cc3ccccc32)cc1 [Example 21, 1-{4-[3-(2R-Methylpyrrolidin-1-yl)propoxy]phenyl}-1H-indole-2-carboxylic acid cyclohexylamide] |
| < 100 nM | C[C@@H]1CCCN1CCCOc1ccc(-n2c(C(=O)NC3CCCCCC3)cc3ccccc32)cc1 [Example 22, 1-{4-[3-(2R-Methylpyrrolidin-1-yl)propoxy]phenyl}-1H-indole-2-carboxylic acid cycloheptylamide] |
| < 10 nM | C[C@@H]1CCCN1CCCOc1ccc(-n2c(C(=O)N3CCCC3)cc3ccccc32)cc1 [Example 23, (1-{4-[3-(2R-Methylpyrrolidin-1-yl)propoxy]phenyl}-1H-indol-2-yl)pyrrolidin-1-ylmethanone] |
| < 10 nM | C[C@@H]1CCCN1CCCOc1ccc(-n2c(C(=O)N3CCCCC3)cc3ccccc32)cc1 [Example 24, (1-{4-[3-(2R-Methylpyrrolidin-1-yl)propoxy]phenyl}-1H-indol-2-yl)piperidin-1-ylmethanone] |
| < 10 nM | C[C@@H]1CCCN1CCCOc1ccc(-n2c(C(=O)N3CCOCC3)cc3ccccc32)cc1 [Example 25, (1-{4-[3-(2R-Methylpyrrolidin-1-yl)propoxy]phenyl}-1H-indol-2-yl)morpholin-4-ylmethanone] |
| < 10 nM | CCCCNC(=O)c1cc2ccccc2n1-c1ccc(OCCCN2CCC[C@H]2C)cc1 [Example 26, 1-{4-[3-(2R-Methylpyrrolidin-1-yl)propoxy]phenyl}-1H-indole-2-carboxylic acid butylamide] |
| < 10 nM | CC(C)CNC(=O)c1cc2ccccc2n1-c1ccc(OCCCN2CCC[C@H]2C)cc1 [Example 27, 1-{4-[3-(2R-Methylpyrrolidin-1-yl)propoxy]phenyl}-1H-indole-2-carboxylic acid isobutylamide] |
| < 10 nM | C[C@@H]1CCCN1CCCOc1ccc(-n2c(C(=O)NCC3CCCCC3)cc3ccccc32)cc1 [Example 28, 1-{4-[3-(2R-Methylpyrrolidin-1-yl)propoxy]phenyl}-1H-indole-2-carboxylic acid cyclohexylmethylamide] |
| < 10 nM | COc1ccc2c(c1)cc(C(=O)NC1CCCCC1)n2-c1ccc(OCCCN2CCC[C@H]2C)cc1 [Example 29, 5-Methoxy-1-{4-[3-(2R-methylpyrrolidin-1-yl)propoxy]phenyl}-1H-indole-2-carboxylic acid cyclohexylamide] |
| < 10 nM | CCOC(=O)c1cc2ccccc2n1-c1ccc(OCCCN2CCCC2)cc1 [Example 30, 1-[4-(3-Pyrrolidin-1-ylpropoxy)phenyl]-1H-indole-2-carboxylic acid ethyl ester] |
| < 10 nM | OCc1cc2ccccc2n1-c1ccc(OCCCN2CCCC2)cc1 [Example 31, {1-[4-(3-Pyrrolidin-1-ylpropoxy)phenyl]-1H-indol-2-yl}methanol] |
| < 10 nM | CCCc1cc2ccccc2n1-c1ccc(OCCCN2CCCC2)cc1 [Example 38, 2-Propyl-1-[4-(3-pyrrolidin-1-ylpropoxy)phenyl]-1H-indole] |
| < 10 nM | COCCc1cc2ccccc2n1-c1ccc(OCCCN2CCCC2)cc1 [Example 40, 2-(2-Methoxyethyl)-1-[4-(3-pyrrolidin-1-ylpropoxy)phenyl]-1H-indole] |
| < 10 nM | OCCc1cc2ccccc2n1-c1ccc(OCCCN2CCCC2)cc1 [Example 41, 2-{1-[4-(3-Pyrrolidin-1-ylpropoxy)phenyl]-1H-indol-2-yl}ethanol] |
